# Experimental data from patent publication US10874670B2, “Substituted fused heteroaromatic compounds as kinase inhibitors and the use thereof” (IMPACT THERAPEUTICS, INC., priority 2017, dated 2020).
# Read-outs that look alike come from different tables or passages of the source.
# Legend:
# ATM enzyme (human) = ATM enzyme (human) (Homo sapiens, UniProt Q13315); test: ATM kinase assay (HTRF, GST-cMyc-p53 substrate); format: biochemical; conditions: for inhibition at 1 µM: C 1 μm (final concentration of compound); for inhibition at 0.01 µM: C 0.01 μm (final concentration of compound); for inhibition at 0.1 µM: C 0.1 μm (final concentration of compound)
# Outline: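 Reaction with GST-cMyc-p53 substrate started with Mg/ATP, run 30 minutes at room temperature, then stopped with EDTA. Phospho-p53 (Ser15) detected by HTRF with Eu-labelled anti-phospho antibody and d2 anti-GST, signal as 10000×(Em665/Em620). Duplicates; IC50 from a curve fit with slope factor.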
# [1] = system: human colon cancer cell SW620; test: MTT assay, growth of SW620 cells, compounds combined with CPT-11; format: cell-based; conditions: for IC50: Homo sapiens, SW-620, 120 h, combined with CPT-11 (205 nM medium), 5 days, MTT
# Outline: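 SW620 cells in RPMI 1640/10% FBS were exposed to 8-point compound dilutions (top 10 or 1 μM, 1% DMSO final) plus CPT-11 (205 nM in added medium) for 5 days at 37 °C. Viability by MTT (0.5 mg/mL, 4 h) absorbance; IC50 from sigmoidal fit.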
# [2] = system: human breast cancer cell MDA-MB-468; test: MTT assay, growth of MDA-MB-468 cells; format: cell-based; conditions: for IC50: Homo sapiens, MDA-MB-468, 168 h, 7 days, MTT
# Method: Inhibitory Effects of N,N-dimethyl-3-(4-(1-(tetrahydro-2H-pyran-4-yl)-[1,2,4]triazolo[4,3-a]quinoxalin-8-yl)phenoxy)propan-1-amine and its Analogues on the Growth of Human Breast Cancer Cell MDA-MB-468 were Determined by MTT Assay
# MDA-MB-468 cells were digested by trypsinase, centrifuged at 800 rpm for 5 minutes, the supernatant was discarded, resuspended with fresh medium (RPMI 1640 medium+10% FBS) and counted. The cells were seeded into 96-well cell culture plate with appropriate cell density and incubated overnight in a 37° C. 5% CO2 incubator. The stock solutions of the tested compound and the reference compound AZD0156 were serially diluted to 8 concentrations by DMSO at the ratios of 1:3 and 1:10, respectively: the first concentration was 100 μM or 1 μM, and the last concentration was negative control of DMSO (0 μM, the final concentration of DMSO was 1%). 5 μL of each concentration was added to 120 μL of medium (25 times diluted) and mixed by shaking. The overnight cells were taken and the culture medium was removed, 195 μL of fresh medium was added to each well, and 5 μL of diluted medium containing the corresponding concentration of the tested sample was added respectively, and the culture plate was then placed in the 5% CO2 cell culture incubator at 37° C. for 7 days (On the fourth day, the medium containing drugs was removed and fresh medium containing drugs was added for continuous cultivation). After removing the original solution, 100 μL of fresh serum-free DMEM medium containing MTT (0.5 mg/mL) was added to each well, the culture was continued. After 4 hours, the original solution was removed, 100 μL of DMSO was added into each well, the 96-well plates were shaken away from light for 10 minutes and placed in a multi-function reader to read the absorbance at the wavelength of 552/630/690 nm. GraphPad Prism 6.0 was used to analyze the data. The inhibitory activity of compounds on cell proliferation was plotted based on cell viability and compound concentration. The IC50 value was fitted by a sigmoidal dose response curve equation Y=100/(1+10^(Log C−Log IC50)), where C was the concentration of compound.
# Table 4 summarizes the inhibitory effects of compounds on the growth of human breast cancer cell MDA-MB-468 (IC50).
# [3] = 0.5 h, read-out: Inh (%) of ATM kinase
# [4] = 0.5 h, C 0.001 μm (final concentration of compound), read-out: Inh (%) of ATM kinase
# ATM enzyme (human), sequence (Q13315 whole entry): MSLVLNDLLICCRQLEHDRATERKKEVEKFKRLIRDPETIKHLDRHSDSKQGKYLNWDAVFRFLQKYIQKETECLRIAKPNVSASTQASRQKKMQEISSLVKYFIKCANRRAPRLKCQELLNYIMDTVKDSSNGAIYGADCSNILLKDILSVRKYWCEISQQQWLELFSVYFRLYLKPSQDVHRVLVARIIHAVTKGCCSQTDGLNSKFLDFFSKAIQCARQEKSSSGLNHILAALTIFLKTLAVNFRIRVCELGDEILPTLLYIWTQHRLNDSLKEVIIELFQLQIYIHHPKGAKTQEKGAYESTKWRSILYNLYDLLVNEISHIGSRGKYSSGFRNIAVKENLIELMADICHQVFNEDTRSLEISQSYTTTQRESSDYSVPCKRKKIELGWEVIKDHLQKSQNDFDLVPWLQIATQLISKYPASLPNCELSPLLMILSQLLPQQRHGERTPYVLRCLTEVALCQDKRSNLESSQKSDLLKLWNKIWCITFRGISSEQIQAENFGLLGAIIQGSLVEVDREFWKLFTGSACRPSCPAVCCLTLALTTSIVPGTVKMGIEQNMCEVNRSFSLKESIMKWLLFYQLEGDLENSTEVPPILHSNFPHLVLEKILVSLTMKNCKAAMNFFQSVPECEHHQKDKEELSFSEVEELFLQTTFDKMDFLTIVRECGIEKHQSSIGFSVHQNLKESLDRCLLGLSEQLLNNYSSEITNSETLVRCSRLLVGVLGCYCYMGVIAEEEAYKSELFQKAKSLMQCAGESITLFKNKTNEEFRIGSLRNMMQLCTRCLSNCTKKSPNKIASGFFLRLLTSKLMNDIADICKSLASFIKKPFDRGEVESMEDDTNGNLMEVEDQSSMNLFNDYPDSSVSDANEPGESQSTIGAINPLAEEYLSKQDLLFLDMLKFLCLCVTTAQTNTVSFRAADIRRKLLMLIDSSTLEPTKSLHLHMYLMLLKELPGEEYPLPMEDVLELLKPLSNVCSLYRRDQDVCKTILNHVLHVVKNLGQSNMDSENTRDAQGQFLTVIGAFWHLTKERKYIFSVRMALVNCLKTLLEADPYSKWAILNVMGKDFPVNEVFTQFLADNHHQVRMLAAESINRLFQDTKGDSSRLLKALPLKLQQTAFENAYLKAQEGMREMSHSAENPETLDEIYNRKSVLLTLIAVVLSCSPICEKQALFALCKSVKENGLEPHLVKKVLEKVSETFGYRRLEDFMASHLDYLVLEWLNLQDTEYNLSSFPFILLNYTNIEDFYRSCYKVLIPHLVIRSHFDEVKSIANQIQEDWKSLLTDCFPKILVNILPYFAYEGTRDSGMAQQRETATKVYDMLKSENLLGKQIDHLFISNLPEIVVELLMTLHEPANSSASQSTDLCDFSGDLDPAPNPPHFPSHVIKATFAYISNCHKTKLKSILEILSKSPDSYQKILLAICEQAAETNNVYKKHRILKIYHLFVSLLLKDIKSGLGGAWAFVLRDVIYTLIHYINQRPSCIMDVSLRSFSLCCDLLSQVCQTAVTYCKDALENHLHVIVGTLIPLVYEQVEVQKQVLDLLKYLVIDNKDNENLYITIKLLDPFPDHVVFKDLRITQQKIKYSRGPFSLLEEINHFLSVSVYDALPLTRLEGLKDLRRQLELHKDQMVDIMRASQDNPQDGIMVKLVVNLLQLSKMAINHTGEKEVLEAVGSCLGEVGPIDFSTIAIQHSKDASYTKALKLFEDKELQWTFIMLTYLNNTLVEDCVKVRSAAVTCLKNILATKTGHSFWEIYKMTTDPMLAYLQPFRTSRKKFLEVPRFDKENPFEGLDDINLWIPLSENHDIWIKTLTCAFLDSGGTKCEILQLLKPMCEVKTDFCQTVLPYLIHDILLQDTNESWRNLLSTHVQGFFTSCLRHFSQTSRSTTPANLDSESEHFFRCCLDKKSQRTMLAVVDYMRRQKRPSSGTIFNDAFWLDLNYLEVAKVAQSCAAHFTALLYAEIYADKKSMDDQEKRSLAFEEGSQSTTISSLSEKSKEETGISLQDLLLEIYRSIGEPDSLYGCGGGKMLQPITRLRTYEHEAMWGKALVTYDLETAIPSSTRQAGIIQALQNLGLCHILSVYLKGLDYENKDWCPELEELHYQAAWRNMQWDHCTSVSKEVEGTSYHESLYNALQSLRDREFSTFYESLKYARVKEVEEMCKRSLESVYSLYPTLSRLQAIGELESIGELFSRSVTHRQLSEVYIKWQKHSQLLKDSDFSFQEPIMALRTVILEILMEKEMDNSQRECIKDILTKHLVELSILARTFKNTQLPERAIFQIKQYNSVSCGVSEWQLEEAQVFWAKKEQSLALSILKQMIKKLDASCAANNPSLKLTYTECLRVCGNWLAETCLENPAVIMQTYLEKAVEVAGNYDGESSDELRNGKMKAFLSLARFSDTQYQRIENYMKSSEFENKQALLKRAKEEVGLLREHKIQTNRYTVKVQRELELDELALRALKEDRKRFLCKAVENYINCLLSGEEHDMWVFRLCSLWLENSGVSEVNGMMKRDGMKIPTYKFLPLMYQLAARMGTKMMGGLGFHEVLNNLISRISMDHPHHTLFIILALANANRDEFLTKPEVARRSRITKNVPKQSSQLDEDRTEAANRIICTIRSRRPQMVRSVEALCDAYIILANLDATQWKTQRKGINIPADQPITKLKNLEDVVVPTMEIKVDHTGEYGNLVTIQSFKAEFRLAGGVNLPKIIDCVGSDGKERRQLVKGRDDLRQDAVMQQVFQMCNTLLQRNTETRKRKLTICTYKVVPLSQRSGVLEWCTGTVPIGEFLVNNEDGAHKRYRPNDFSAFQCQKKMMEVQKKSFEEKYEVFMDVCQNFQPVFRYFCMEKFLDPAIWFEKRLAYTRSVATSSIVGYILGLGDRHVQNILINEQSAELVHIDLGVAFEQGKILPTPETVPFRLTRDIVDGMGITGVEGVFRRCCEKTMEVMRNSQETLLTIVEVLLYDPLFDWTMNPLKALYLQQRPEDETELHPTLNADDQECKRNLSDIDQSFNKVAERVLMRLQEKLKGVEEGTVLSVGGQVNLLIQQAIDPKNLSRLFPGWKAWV
SMILES,inhibition at 1 µM (ATM enzyme (human); [3]) [%],IC50 [1] [nM],IC50 [2] [nM],inhibition at 0.01 µM (ATM enzyme (human); [3]) [%],inhibition at 0.1 µM (ATM enzyme (human); [3]) [%],inhibition at 0.001 µM (ATM enzyme (human); [4]) [%],"inhibition at 0.001 µM (ATM enzyme (human); at 1 nM, read-out: inhibitory effect on ATM kinase) [%]","inhibitory effect on the growth of SW620 cells (in words) ([1]; MTT assay, combined with CPT-11)",inhibitory effect on the growth of MDA-MB-468 cells (in words) ([2]; MTT assay)
"CN(C)CCCOc1ccc(-c2ccc3ncc4cnc(C5CCOCC5)n4c3c2)cc1 [Example 37, N,N-dimethyl-3-(4-(1-(tetrahydro-2H-pyran-4-yl)imidazo[1,5-a]quinoxalin-8-yl)phenoxy)propan-1-amine]",18,4250,4710,,,,,,
"CN(C)C1CCN(c2ccc(-c3ccc4ncc5nnc(C6CCOCC6)n5c4c3)cc2F)CC1 [Example 44, 1-(2-fluoro-4-(1-(tetrahydro-2H-pyran-4-yl)-[1,2,4]triazolo[4,3-a]quinoxalin-8-yl)phenyl)-N,N-dimethylpiperidin-4-amine]",100,152,183,67,94,,,,
"CN(C)C1CCN(c2ccc(-c3ccc4ncc5nnc(C6CCOCC6)n5c4c3)cc2Cl)CC1 [Example 45, 1-(2-chloro-4-(1-(tetrahydro-2H-pyran-4-yl)-[1,2,4]triazolo[4,3-a]quinoxalin-8-yl)phenyl)-N,N-dimethylpiperidin-4-amine]",100,170,106,67,94,,,,
"Cc1cc(-c2ccc3ncc4nnc(C5CCOCC5)n4c3c2)ccc1N1CCC(N(C)C)CC1 [Example 46, N,N-dimethyl-1-(2-methyl-4-(1-(tetrahydro-2H-pyran-4-yl)-[1,2,4]triazolo[4,3-a]quinoxalin-8-yl)phenyl)piperidin-4-amine]",100,612,930,,,,,,
"CN(C)C1CCN(c2ccc(-c3ccc4ncc5nnc(C6CCOCC6)n5c4c3)cc2C(F)(F)F)CC1 [Example 47, N,N-dimethyl-1-(4-(1-(tetrahydro-2H-pyran-4-yl)-[1,2,4]triazolo[4,3-a]quinoxalin-8-yl)-2-(trifluoromethyl)phenyl)piperidin-4-amine]",100,128,145,72,96,,,,
"CN(C)C1CCN(c2ccc(-c3ccc4ncc5nnc(C6CCOCC6)n5c4c3)c(F)c2)CC1 [Example 48, 1-(3-fluoro-4-(1-(tetrahydro-2H-pyran-4-yl)-[1,2,4]triazolo[4,3-a]quinoxalin-8-yl)phenyl)-N,N-dimethylpiperidin-4-amine]",100,184,161,62,93,,,,
"CN(C)C1CCN(c2ccc(-c3ccc4ncc5nnc(C6CCOCC6)n5c4c3)c(Cl)c2)CC1 [Example 49, 1-(3-chloro-4-(1-(tetrahydro-2H-pyran-4-yl)-[1,2,4]triazolo[4,3-a]quinoxalin-8-yl)phenyl)-N,N-dimethylpiperidin-4-amine]",100,1030,1580,,,,,,
"Cc1cc(N2CCC(N(C)C)CC2)ccc1-c1ccc2ncc3nnc(C4CCOCC4)n3c2c1 [Example 50, N,N-dimethyl-1-(3-methyl-4-(1-(tetrahydro-2H-pyran-4-yl)-[1,2,4]triazolo[4,3-a]quinoxalin-8-yl)phenyl)piperidin-4-amine]",80,> 10000,> 100000,,,,,,
"CN(C)C1CCN(c2ccc(-c3ccc4ncc5nnc(C6CCOCC6)n5c4c3)c(C(F)(F)F)c2)CC1 [Example 51, N,N-dimethyl-1-(4-(1-(tetrahydro-2H-pyran-4-yl)-[1,2,4]triazolo[4,3-a]quinoxalin-8-yl)-3-(trifluoromethyl)phenyl)piperidin-4-amine]",74,> 10000,3680,,,,,,
"CN(C)C1CCN(c2ccc(-c3ccc4ncc5nnc(C6CCOCC6)n5c4c3)nc2)CC1 [Example 52, N,N-dimethyl-1-(6-(1-(tetrahydro-2H-pyran-4-yl)-[1,2,4]triazolo[4,3-a]quinoxalin-8-yl)pyridin-3-yl)piperidin-4-amine]",98,> 10000,523,,,,,,
"CN(C)CC1CCN(c2ccc(-c3ccc4ncc5nnc(C6CCOCC6)n5c4c3)cc2)CC1 [Example 53, N,N-dimethyl-1-(1-(4-(1-(tetrahydro-2H-pyran-4-yl)-[1,2,4]triazolo[4,3-a]quinoxalin-8-yl)phenyl)piperidin-4-yl)methanamine]",77,> 100000,> 100000,,,,,,
"CN(C)CCC1CCN(c2ccc(-c3ccc4ncc5nnc(C6CCOCC6)n5c4c3)cc2)CC1 [Example 54, N,N-dimethyl-2-(1-(4-(1-(tetrahydro-2H-pyran-4-yl)-[1,2,4]triazolo[4,3-a]quinoxalin-8-yl)phenyl)piperidin-4-yl)ethan-1-amine]",82,> 100000,> 100000,,,,,,
"C[C@@H]1CN(c2nnc3cnc4ccc(-c5ccc(OCCCN(C)C)c(C(F)(F)F)c5)cc4n23)C[C@H](C)N1C [Example 57, N,N-dimethyl-3-(2-(trifluoromethyl)-4-(1-((3S,5R)-3,4,5-trimethylpiperazin-1-yl)-[1,2,4]triazolo[4,3-a]quinoxalin-8-yl)phenoxy)propan-1-amine]",100,11.8,15,98,100,60,> 50,comparable to AZD0156,comparable to AZD0156
"C[C@@H]1CN(c2nnc3cnc4ccc(-c5ccc(N6CCC(N(C)C)CC6)cc5)cc4n23)C[C@H](C)N1C [Example 58, N,N-dimethyl-1-(4-(1-((3S,5R)-3,4,5-trimethylpiperazin-1-yl)-[1,2,4]triazolo[4,3-a]quinoxalin-8-yl)phenyl)piperidin-4-amine]",100,47.5,68.8,89,100,38,,,
"CN(C)C1CCN(c2ccc(-c3ccc4ncc5nnc(N6CCC(N(C)C)CC6)n5c4c3)cc2)CC1 [Example 64, 1-(4-(1-(4-(dimethylamino)piperidin-1-yl)-[1,2,4]triazolo[4,3-a]quinoxalin-8-yl)phenyl)-N,N-dimethylpiperidin-4-amine]",98,> 10000,> 10000,,,,,,
"CNC1CCN(c2ccc(-c3ccc4ncc5nnc(CN6CCOCC6)n5c4c3)cc2)CC1 [Example 66, N-methyl-1-(4-(1-(morpholinomethyl)-[1,2,4]triazolo[4,3-a]quinoxalin-8-yl)phenyl)piperidin-4-amine]",100,589,430,,,,,,
"c1ccc(-c2cc3c(cn2)ncc2nnc(C4CCOCC4)n23)cc1 [Example 67, 8-phenyl-1-(tetrahydro-2H-pyran-4-yl)pyrido[3,4-e][1,2,4]triazolo[4,3-a]pyrazine]",19,> 100000,> 100000,,,,,,
"CN(C)Cc1ccc(-c2cc3c(cn2)ncc2nnc(C4CCOCC4)n23)cc1 [Example 68, N,N-dimethyl-1-(4-(1-(tetrahydro-2H-pyran-4-yl)pyrido[3,4-e][1,2,4]triazolo[4,3-a]pyrazin-8-yl)phenyl)methanamine]",0,> 100000,> 100000,,,,,,
"CNC1CCN(c2ccc(-c3cc4c(cn3)ncc3nnc(C5CCOCC5)n34)cc2)CC1 [Example 70, N-methyl-1-(4-(1-(tetrahydropyran-4-yl)pyrido[3,4-e][1,2,4]triazolo[4,3-a]pyrazin-8-yl)phenyl)piperidin-4-amine]",4,> 10000,> 100000,,,,,,
